The target of the assay is T1, Human calcitonin receptor (Homo sapiens, UniProt P30988).
T1 construct: expressed in transfected cells; host or cells: BHK-570 (Hollex-1)
T1 sequence (P30988 25-474): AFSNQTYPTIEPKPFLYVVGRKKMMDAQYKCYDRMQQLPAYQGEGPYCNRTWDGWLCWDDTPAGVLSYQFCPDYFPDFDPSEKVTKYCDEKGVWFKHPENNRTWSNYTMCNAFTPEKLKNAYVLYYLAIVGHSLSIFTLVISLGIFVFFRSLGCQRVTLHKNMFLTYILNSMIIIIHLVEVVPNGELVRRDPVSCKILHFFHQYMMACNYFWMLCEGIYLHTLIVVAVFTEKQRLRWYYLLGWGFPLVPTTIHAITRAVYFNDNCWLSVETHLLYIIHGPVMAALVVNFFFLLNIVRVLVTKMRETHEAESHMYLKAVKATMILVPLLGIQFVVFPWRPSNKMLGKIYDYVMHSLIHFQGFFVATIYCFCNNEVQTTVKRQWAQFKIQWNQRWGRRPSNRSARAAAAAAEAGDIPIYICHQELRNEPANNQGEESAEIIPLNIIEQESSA
As to the kind of experiment: CRE-luciferase assay for calcitonin mimetics (Hollex-1). Type of assay: cell-based. How it is done: CRE-Luciferase Assay Method for Calcitonin Mimetics
Human calcitonin receptor-positive and receptor-negative BHK-570 (Baby Hamster Kidney) cell lines were maintained by serial passage in growth medium (DMEM supplemented with 10% heat-inactivated fetal calf serum (HI-FCS), 2 mM L-glutamine, 1 mM sodium pyruvate, 250 nM MTX, and 1 mg/mL G418). On the day prior to assay, cells were trypsinized, adjusted to 2.5×10^5 cells/ml in growth medium, plated in opaque white Dynatech Microlite microtiter tissue culture plates at 50 μL/well, and grown overnight to confluence (37° C., 5% CO2 atmosphere).
Test substances were prepared in DMSO or 10% DMF at 100 times the final desired assay concentration. […] Controls were included on each plate: untreated wells (basal), […], and 100 nM human calcitonin. DMSO or DMF was included in control wells at a concentration equal to that in test samples (not to exceed a final assay concentration of 2% DMSO or 0.5% DMF, with a preferred maximum of 1% DMSO or 0.1% DMF).
Plates were incubated for 3 to 8 hours (4 hours preferred) at 37° C. in an atmosphere of 5% CO2. Following induction, luciferase activity was measured using a Promega luciferase assay kit (E1500) according to the assay kit protocol (Promega Corp., Madison, Wis.). Briefly, assay medium was removed and cells were washed once with phosphate buffered saline (PBS). After the wash, 25 μl of lysis buffer was added to each well, and the plates were incubated for 15 minutes at room temperature. Fifty microliters of Luciferase Assay Substrate (Promega, Corp.) was added to each well and the plates were transferred to a Labsystems Lumiscan microtiter luminometer (Labsystems Inc., Morton Grove, Ill.). The amount of luminescence (relative light units, RLU) was determined following a 0.1 second/well integration of signal. Basal (uninduced) luciferase signal was subtracted from all measurements, and the luciferase signal induced by test samples was expressed as a percentage of the signal in the calcitonin and forskolin controls. Specificity of the luciferase induction for calcitonin receptor-positive cell lines was determined by comparing the percent control values in the calcitonin receptor-positive line (Hollex-1) to those observed in the calcitonin receptor-negative cell line (KZ10-20-48/Zem 228) and the PTH receptor-positive cell line (KZ10-20-48/PTH-20) described below. Samples inducing a signal over the basal level were selected for further characterization, see Table 1 for examples.

As to `CCNC(=O)C(Cc1ccc(OCC)cc1)NC(=O)Nc1cc(C(C)(C)C)ccc1C(C)(C)C` (centres unmarked) [628-007], the “Luciferase induction (% of maximum luciferase induction produced by CT, 100 nM)” value reads like this: (crude compound 3.125 μg/ml) 0.76%; (crude compound 6.25 μg/ml) 10.61%; (crude compound 12.5 μg/ml) 31.97%; (crude compound 25 μg/ml) 55.34%; (crude compound 50 μg/ml) 31.73%.
Turning to `CCNC(=O)C(Cc1cn(CC)c2ccccc12)NC(=O)Nc1cc(C(C)(C)C)ccc1C(C)(C)C` (centres unmarked) [628-008], the “Luciferase induction (% of maximum luciferase induction produced by CT, 100 nM)” value by setting is: (crude compound 3.125 μg/ml) −1.31%; (crude compound 6.25 μg/ml) 2.91%; (crude compound 12.5 μg/ml) 20.07%; (crude compound 25 μg/ml) 50.93%; (crude compound 50 μg/ml) 50.39%.
As to `C=CCNC(=O)[C@@H](Cc1ccccc1)NC(=O)Nc1cc(C(C)(C)C)ccc1C(C)(C)C` [628-013], the “Luciferase induction (% of maximum luciferase induction produced by CT, 100 nM)” value is 3.51% (crude compound 3.125 μg/ml); 17.98% (crude compound 6.25 μg/ml); 51.62% (crude compound 12.5 μg/ml); 69.62% (crude compound 25 μg/ml); 64.26% (crude compound 50 μg/ml).
Take `C=CCNC(=O)C(Cc1ccc(OCC=C)cc1)NC(=O)Nc1cc(C(C)(C)C)ccc1C(C)(C)C` (centres unmarked) [628-015]: the “Luciferase induction (% of maximum luciferase induction produced by CT, 100 nM)” value is recorded as 1.62% (crude compound 3.125 μg/ml); 14.69% (crude compound 6.25 μg/ml); 43.2% (crude compound 12.5 μg/ml); 72.17% (crude compound 25 μg/ml); 71.49% (crude compound 50 μg/ml).
As to `C=CCNC(=O)C(Cc1cn(CC=C)c2ccccc12)NC(=O)Nc1cc(C(C)(C)C)ccc1C(C)(C)C` (centres unmarked) [628-016], the “Luciferase induction (% of maximum luciferase induction produced by CT, 100 nM)” value is, setting by setting: (crude compound 3.125 μg/ml) 10.72%; (crude compound 6.25 μg/ml) 43.89%; (crude compound 12.5 μg/ml) 76.44%; (crude compound 25 μg/ml) 80.63%; (crude compound 50 μg/ml) 75.76%.
With `CCNC(=O)[C@@H](Cc1ccc(Cl)cc1)NC(=O)Nc1cc(C(C)(C)C)ccc1C(C)(C)C` [628-022], the “Luciferase induction (% of maximum luciferase induction produced by CT, 100 nM)” value (crude compound 3.125 μg/ml) was determined as 2.08%; the “Luciferase induction (% of maximum luciferase induction produced by CT, 100 nM)” value (crude compound 6.25 μg/ml) was found to be 3.26%; the “Luciferase induction (% of maximum luciferase induction produced by CT, 100 nM)” value (crude compound 12.5 μg/ml) was found to be 17.85%; the “Luciferase induction (% of maximum luciferase induction produced by CT, 100 nM)” value (crude compound 25 μg/ml) was 41.52%; the “Luciferase induction (% of maximum luciferase induction produced by CT, 100 nM)” value (crude compound 50 μg/ml) amounted to 46.98%.
For `CCNC(=O)[C@@H](Cc1ccc(F)cc1)NC(=O)Nc1cc(C(C)(C)C)ccc1C(C)(C)C` [628-023], the “Luciferase induction (% of maximum luciferase induction produced by CT, 100 nM)” value by setting is: (crude compound 3.125 μg/ml) −0.46%; (crude compound 6.25 μg/ml) 7.84%; (crude compound 12.5 μg/ml) 32.04%; (crude compound 25 μg/ml) 46.84%; (crude compound 50 μg/ml) 41.79%.
For `CCNC(=O)[C@@H](Cc1ccc(I)cc1)NC(=O)Nc1cc(C(C)(C)C)ccc1C(C)(C)C` [628-024], the “Luciferase induction (% of maximum luciferase induction produced by CT, 100 nM)” value runs as follows: (crude compound 3.125 μg/ml) −1.24%; (crude compound 6.25 μg/ml) 1.39%; (crude compound 12.5 μg/ml) 11.8%; (crude compound 25 μg/ml) 22.64%; (crude compound 50 μg/ml) 30.25%.
Turning to `CCNC(=O)[C@@H](Cc1ccc2ccccc2c1)NC(=O)Nc1cc(C(C)(C)C)ccc1C(C)(C)C` [628-025], the “Luciferase induction (% of maximum luciferase induction produced by CT, 100 nM)” value is given as 0.42% (crude compound 3.125 μg/ml); 0.65% (crude compound 6.25 μg/ml); 2.33% (crude compound 12.5 μg/ml); 7.96% (crude compound 25 μg/ml); 22.61% (crude compound 50 μg/ml).
As for `C=CCNC(=O)[C@@H](Cc1ccc(Cl)cc1)NC(=O)Nc1cc(C(C)(C)C)ccc1C(C)(C)C` [628-032], the “Luciferase induction (% of maximum luciferase induction produced by CT, 100 nM)” value is recorded as 25.42% (crude compound 6.25 μg/ml), 27.28% (crude compound 12.5 μg/ml), 31.34% (crude compound 25 μg/ml) and 33.94% (crude compound 50 μg/ml).
In the case of `C=CCNC(=O)[C@@H](Cc1ccc(I)cc1)NC(=O)Nc1cc(C(C)(C)C)ccc1C(C)(C)C` [628-034], the “Luciferase induction (% of maximum luciferase induction produced by CT, 100 nM)” value is, setting by setting: (crude compound 6.25 μg/ml) 6.89%; (crude compound 12.5 μg/ml) 25.02%; (crude compound 25 μg/ml) 33.86%; (crude compound 50 μg/ml) 38.68%.
Consider `C=CCNC(=O)[C@H](NC(=O)Nc1cc(C(C)(C)C)ccc1C(C)(C)C)c1ccccc1` [628-036], for which the “Luciferase induction (% of maximum luciferase induction produced by CT, 100 nM)” value is reported as 4.12% (crude compound 6.25 μg/ml), 6.43% (crude compound 12.5 μg/ml), 8.0% (crude compound 25 μg/ml) and 10.38% (crude compound 50 μg/ml).
For `CC(C)(C)c1ccc(C(C)(C)C)c(NC(=O)N[C@H](Cc2ccc(Cl)cc2)C(=O)NCc2ccccc2)c1` [628-042], the “Luciferase induction (% of maximum luciferase induction produced by CT, 100 nM)” value stood at 19.16% (crude compound 3.125 μg/ml); 49.17% (crude compound 6.25 μg/ml); 59.74% (crude compound 12.5 μg/ml); 68.69% (crude compound 25 μg/ml); 60.41% (crude compound 50 μg/ml).
For `CC(C)(C)c1ccc(C(C)(C)C)c(NC(=O)N[C@H](Cc2ccc(F)cc2)C(=O)NCc2ccccc2)c1` [628-043] the same measures were 6.48%, 34.53%, 42.06%, 46.24% and 47.95%.
For `CC(C)(C)c1ccc(C(C)(C)C)c(NC(=O)N[C@H](Cc2ccc(I)cc2)C(=O)NCc2ccccc2)c1` [628-044] the same measures were 10.65%, 24.08%, 29.35%, 26.23% and 30.14%.
In the case of `CC(C)(C)c1ccc(C(C)(C)C)c(NC(=O)N[C@H](Cc2ccc3ccccc3c2)C(=O)NCc2ccccc2)c1` [628-045], the “Luciferase induction (% of maximum luciferase induction produced by CT, 100 nM)” value (crude compound 3.125 μg/ml) is given as 20.19%; the “Luciferase induction (% of maximum luciferase induction produced by CT, 100 nM)” value (crude compound 6.25 μg/ml) was found to be 38.73%; the “Luciferase induction (% of maximum luciferase induction produced by CT, 100 nM)” value (crude compound 12.5 μg/ml) is 42.49%; the “Luciferase induction (% of maximum luciferase induction produced by CT, 100 nM)” value (crude compound 25 μg/ml) is reported as 44.51%; the “Luciferase induction (% of maximum luciferase induction produced by CT, 100 nM)” value (crude compound 50 μg/ml) is recorded as 40.62%.

(Values after US6391917B1, “Dialkyl ureas as calcitonin mimetics” (ZymoGenetics, Inc., priority 1998, dated 2002).)
